Literature values in US7857962B2, “Potentiometric electrode, gradient polymer, uses and method of preparation therefor” (Universiteit Antwerpen, priority 2004, dated 2010).

Details: for Log P: organic acid analytes, n-octanol/water; for log P: basic drugs named for comparison

Row | Compound | Log P | log P
1 | O=C(O)/C=C/C(=O)O [Fumaric, fumaric acid] | +0.49 | –
2 | CC(O)C(=O)O (centres unmarked) [Lactic, lactic acid] | −1.31 | –
3 | O=C(O)CC(O)C(=O)O (centres unmarked) [Malic, malic acid] | −1.22 | –
4 | O=C(O)CCC(=O)O [Succinic, succinic acid] | −1.11 | –
5 | O=C(O)C(O)C(O)C(=O)O (centres unmarked) [Tartaric, tartaric acid] | −1.39 | –
6 | Nc1c(Br)cc(Br)cc1CN[C@H]1CC[C@H](O)CC1 [ambroxol, reference compound] | – | 3.24
7 | CN(Cc1cc(Br)cc(Br)c1N)C1CCCCC1 [bromhexine, reference compound] | – | 4.03
8 | CC(C)(C)NCC(O)c1cc(Cl)c(N)c(Cl)c1 (centres unmarked) [clenbuterol, reference compound] | – | 2.91
